Source: ChEMBL document CHEMBL1765046, “Small molecule inhibitor of the RPA70 N-terminal protein interaction domain discovered using in silico and in vitro methods” (Bioorg Med Chem, 2011)
Active and inactive are the calls of the source. The rule behind the calls is not given here.

Tests used:
[1] = molecular target: Cellular tumor antigen p53/Replication protein A 70 kDa DNA-binding subunit (Homo sapiens, UniProt P04637+P27694); experiment: Inhibition of GST-tagged p53/recombinant human N-terminal domain of RPA70 DNA binding domain interaction by ELISA-like plate binding assay
Sequence of Cellular tumor antigen p53/Replication protein A 70 kDa DNA-binding subunit (P04637 whole entry, the tested form may be a part): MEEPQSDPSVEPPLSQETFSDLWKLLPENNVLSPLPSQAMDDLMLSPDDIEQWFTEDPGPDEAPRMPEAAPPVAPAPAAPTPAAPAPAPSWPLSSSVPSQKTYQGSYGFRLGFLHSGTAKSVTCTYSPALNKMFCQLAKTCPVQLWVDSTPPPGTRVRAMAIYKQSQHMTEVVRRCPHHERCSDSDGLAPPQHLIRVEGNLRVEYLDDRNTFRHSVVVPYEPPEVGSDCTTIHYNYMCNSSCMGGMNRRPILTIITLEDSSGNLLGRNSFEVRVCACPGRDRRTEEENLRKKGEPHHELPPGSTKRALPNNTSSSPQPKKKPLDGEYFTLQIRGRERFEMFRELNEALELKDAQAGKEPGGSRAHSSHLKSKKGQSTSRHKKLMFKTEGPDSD
Sequence of Cellular tumor antigen p53/Replication protein A 70 kDa DNA-binding subunit (P27694 whole entry, the tested form may be a part): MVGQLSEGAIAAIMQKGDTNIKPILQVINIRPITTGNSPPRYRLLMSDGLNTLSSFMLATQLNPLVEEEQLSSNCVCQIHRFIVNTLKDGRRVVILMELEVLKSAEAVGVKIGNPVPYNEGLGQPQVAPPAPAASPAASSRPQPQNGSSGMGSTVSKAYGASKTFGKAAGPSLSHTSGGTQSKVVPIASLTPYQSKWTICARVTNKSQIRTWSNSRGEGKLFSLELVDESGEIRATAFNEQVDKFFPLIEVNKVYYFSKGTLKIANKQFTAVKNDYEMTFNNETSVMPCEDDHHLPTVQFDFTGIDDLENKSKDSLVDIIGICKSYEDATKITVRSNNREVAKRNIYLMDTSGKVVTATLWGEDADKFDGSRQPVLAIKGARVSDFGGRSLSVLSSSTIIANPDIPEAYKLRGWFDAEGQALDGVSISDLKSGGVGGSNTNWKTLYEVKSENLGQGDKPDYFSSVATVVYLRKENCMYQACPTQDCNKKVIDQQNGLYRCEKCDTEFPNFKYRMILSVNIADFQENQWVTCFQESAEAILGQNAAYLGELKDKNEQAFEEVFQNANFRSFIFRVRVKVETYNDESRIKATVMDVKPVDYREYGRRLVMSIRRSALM

[2] = molecular target: Replication protein A 70 kDa DNA-binding subunit (Homo sapiens) (UniProt P27694); experiment: Inhibition of recombinant human N-terminal domain of RPA70 DNA binding domain-F binding to 30-mer double strand DNA at <100 uM preincubated for 5mins before dsDNA addition measured after 30 mins by electrophoretic mobility shift assay
Sequence of Replication protein A 70 kDa DNA-binding subunit (Homo sapiens) (P27694 whole entry, the tested form may be a part): as above

[3] = molecular target: Replication protein A 70 kDa DNA-binding subunit (Homo sapiens) (UniProt P27694); experiment: Inhibition of recombinant human N-terminal domain of RPA70 DNA binding domain-F binding to 30-mer single strand DNA at <100 uM preincubated for 5mins before ssDNA addition measured after 30 mins by electrophoretic mobility shift assay

IC50 [1]: 10 µM
inhibition [2]: Active
inhibition [3]: inactive
SMILES: CC(C)C1=CC23CCC4C(C)(C(=O)O)CCCC4(C)C2CC1C(C(=O)O)C3C(=O)O (stereo not drawn)
